Among the data in ChEMBL document CHEMBL3217706, “Identification of CYP1A2 ligands by structure-based and ligand-based virtual screening” (Medchemcomm, 2011) are inhibition and IC50 values, retold here.

The first data set deals with T1, CYP1A2 (Homo sapiens, UniProt P05177).
T1 sequence (P05177 whole entry): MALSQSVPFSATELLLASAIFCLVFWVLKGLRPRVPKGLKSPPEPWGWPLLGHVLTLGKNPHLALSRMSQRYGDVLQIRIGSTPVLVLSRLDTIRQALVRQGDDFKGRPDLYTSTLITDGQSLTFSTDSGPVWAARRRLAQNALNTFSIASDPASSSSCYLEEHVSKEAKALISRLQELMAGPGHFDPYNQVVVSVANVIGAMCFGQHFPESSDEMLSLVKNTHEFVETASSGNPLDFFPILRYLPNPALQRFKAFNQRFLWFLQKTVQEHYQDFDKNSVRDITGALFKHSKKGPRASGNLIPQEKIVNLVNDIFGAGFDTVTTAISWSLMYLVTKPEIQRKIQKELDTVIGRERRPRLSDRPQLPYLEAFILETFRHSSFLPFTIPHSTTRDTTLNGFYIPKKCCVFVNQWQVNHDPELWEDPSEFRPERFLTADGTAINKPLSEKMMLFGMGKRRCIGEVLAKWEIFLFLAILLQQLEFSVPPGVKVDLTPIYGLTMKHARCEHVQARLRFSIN
The data set can be described thus: Inhibition of human recombinant CYP1A2 EROD activity expressed in Escherichia coli JM109 assessed as inhibition of de-ethylation of 7-ethoxyresorufin to resorufin at 0.3 uM by spectrofluorometric analysis. The data set is classed as ADME. Conditions: recombinant human CYP1A2 expressed in Escherichia coli JM109, probe 7-ethoxyresorufin.
In the case of `N#CC1=C(N)Oc2c(ccc3ccccc23)C1c1ccc2c(c1)OCC2` (centres undefined), the inhibition at 0.3 µM is > 50%.

In the case of `CN1C(=O)/C(=C2\NC(=S)NC2=O)c2cc(Br)ccc21`, the inhibition at 0.3 µM was > 50%.

With `O=[N+]([O-])c1ccc2nc3c(nc2c1)-c1cccc2cccc-3c12`, the inhibition at 0.3 µM was > 50%.

On to `Brc1ccc2c3c(cccc13)-c1nc3ccccc3nc1-2`, for which the inhibition at 0.3 µM was > 50%.

In the case of `Cn1c(=O)cc2c3c(c(N)ccc31)C(=O)c1ccccc1-2`, the inhibition at 0.3 µM was > 50%.

In the case of `C(=N\n1cnnc1)/c1ccc(-c2cccc3ccccc23)o1`, the inhibition at 0.3 µM was > 50%.

`O=c1cc(-c2ccccc2)oc2c1ccc1ccccc12` [ALPHA-NAPHTHOFLAVONE]: the inhibition at 0.3 µM is > 50%.

Regarding `COc1ccc(Nc2nc(-c3cccs3)cs2)cc1`, the inhibition at 0.3 µM was > 50%.

`Cc1nn(-c2ccccc2)c2nc(C(F)(F)F)cc(C(F)(F)F)c12`: the inhibition at 0.3 µM is > 50%.

For `COc1ccc(C=O)cc1COc1c(Cl)cc(Cl)cc1Cl`, the inhibition at 0.3 µM is > 50%.

For another data set, the target named is T2, Cytochrome P450 1A2 (Homo sapiens, UniProt P05177).
T2 sequence (P05177 whole entry): T1 sequence (P05177 whole entry)
The data set can be described thus: Inhibition of human recombinant CYP1A2 EROD activity expressed in Escherichia coli JM109 assessed as inhibition of de-ethylation of 7-ethoxyresorufin to resorufin by spectrofluorometric analysis.
Details: not given
The data set is classed as ADME.
As to `N#CC1=C(N)Oc2c(ccc3ccccc23)C1c1ccc2c(c1)OCC2` (centres undefined), the IC50 worked out at 112 nM.

Regarding `CN1C(=O)/C(=C2\NC(=S)NC2=O)c2cc(Br)ccc21`, the IC50 is 49 nM.

As for `O=[N+]([O-])c1ccc2nc3c(nc2c1)-c1cccc2cccc-3c12`, the IC50 was 21 nM.

Turning to `Brc1ccc2c3c(cccc13)-c1nc3ccccc3nc1-2`, the IC50 was 22 nM.

With `Cn1c(=O)cc2c3c(c(N)ccc31)C(=O)c1ccccc1-2`, the IC50 came out at 16 nM.

As for `C(=N\n1cnnc1)/c1ccc(-c2cccc3ccccc23)o1`, the IC50 is 48 nM.

As for `COc1ccc(Nc2nc(-c3cccs3)cs2)cc1`, the IC50 worked out at 72 nM.

For the compound `Cc1nn(-c2ccccc2)c2nc(C(F)(F)F)cc(C(F)(F)F)c12`, the IC50 came to 231 nM.

For the compound `COc1ccc(C=O)cc1COc1c(Cl)cc(Cl)cc1Cl`, the IC50 was 57 nM.

Usually inhibition stands for the change of the read-out against control, counted positive when it falls. One may read the IC50 as the midpoint of a concentration-inhibition curve.
